From ChEMBL document CHEMBL1944544, “Synthesis and immunological evaluation of the 4-β-glucoside of HMBPP” (Bioorg Med Chem Lett, 2012)
Calls of active or inactive are those of the source. No cut-off for these calls is given here.

system: not listed separately; assay: Immunostimulatory activity in human Gamma delta T cells expressing Vgamma2Vdelta2T assessed as proliferation after 16 to 24 hrs by [3H]thymidine incorporation assay; type: functional, cell-based; details: T-cell

| Compound | EC50 [nM] |
| --- | --- |
| C/C(=C\COP(=O)(O)OP(=O)(O)O)CO[C@@H]1O[C@H](CO)[C@@H](O)[C@H](O)[C@H]1O | 78 |
| C/C(=C\COP(=O)(O)OP(=O)(O)O)COCc1cccc(C(=O)c2ccccc2)c1 | 1.8 |
| C/C(=C\COP(=O)(O)OP(=O)(O)O)COCc1ccc(C(=O)c2ccccc2)cc1 | 1.8 |
| C/C(=C\COP(=O)(O)OP(=O)(O)O)COC(=O)c1cccc(C(=O)c2ccccc2)c1 | 0.08 |
| C/C(=C\COP(=O)(O)OP(=O)(O)O)COC(=O)c1ccc(C(=O)c2ccccc2)cc1 | 0.08 |
| CC(=O)OC[C@H]1O[C@@H](OC/C(C)=C/COP(=O)(O)OP(=O)(O)O)[C@H](OC(C)=O)[C@@H](OC(C)=O)[C@@H]1OC(C)=O | 360 |

system: T-cell; assay: Ratio of compound EC50 to isopentenyl pyrophosphate EC50 for immunostimulatory activity in human Gamma delta T cells expressing Vgamma2Vdelta2T; type: functional; details: not given

| Compound | Ratio EC50 |
| --- | --- |
| C/C(=C\COP(=O)(O)OP(=O)(O)O)CO[C@@H]1O[C@H](CO)[C@@H](O)[C@H](O)[C@H]1O | 12 |

system: T-cell; assay: Immunostimulatory activity in human Gamma delta T cells expressing Vgamma2Vdelta2T assessed as proliferation up to 300 uM after 16 to 24 hrs by [3H]thymidine incorporation assay; type: functional, cell-based; details: not given

| Compound | Activity |
| --- | --- |
| C/C(=C\CO[C@@H]1O[C@H](CO)[C@@H](O)[C@H](O)[C@H]1O)CO | inactive |
| C/C(=C\CO)CO[C@@H]1O[C@H](CO)[C@@H](O)[C@H](O)[C@H]1O | inactive |
